Data published in patent US9693556B2, “Herbicidal pyridazinone derivatives” (SYNGENTA LIMITED, priority 2011, dated 2017).

Tests used:
Assay type in all cases: in vivo
[1] = test system: Alopecurus myosuroides (ALOMY); experiment: Pre-emergence herbicidal glasshouse test on Alopecurus myosuroides; conditions: pre-emergence; 1000 g/h; evaluated after 13 days
How it was run: (§1)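 Herbicidal damage was rated 13 days after treatment on a five-point scale, where 5 denotes 80-100% and 1 denotes 0-19% damage. Spraying at 1000 g/h followed sowing by one day (pre-emergence) or eight days (post-emergence).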

Setaria faberi (SETFA) [2] = experiment: Pre-emergence herbicidal glasshouse test on Setaria faberi; conditions: pre-emergence; 1000 g/h; evaluated after 13 days
How it was run: as §1

[3] = test system: Echinochloa crus-galli (ECHCG); experiment: Pre-emergence herbicidal glasshouse test on Echinochloa crus-galli; conditions: pre-emergence; 1000 g/h; evaluated after 13 days
How it was run: as §1

Solanum nigrum (SOLNI) [4] = experiment: Pre-emergence herbicidal glasshouse test on Solanum nigrum; conditions: pre-emergence; 1000 g/h; evaluated after 13 days
How it was run: as §1

[5] = test system: Amaranthus retoflexus (AMARE); experiment: Pre-emergence herbicidal glasshouse test on Amaranthus retoflexus; conditions: pre-emergence; 1000 g/h; evaluated after 13 days
How it was run: as §1

[6] = test system: Ipomoea hederacea (IPOHE); experiment: Pre-emergence herbicidal glasshouse test on Ipomoea hederacea; conditions: pre-emergence; 1000 g/h; evaluated after 13 days
How it was run: as §1

[7] = test system: Alopecurus myosuroides (ALOMY); experiment: Post-emergence herbicidal glasshouse test on Alopecurus myosuroides; conditions: post-emergence; 1000 g/h; evaluated after 13 days
How it was run: as §1

Setaria faberi (SETFA) [8] = experiment: Post-emergence herbicidal glasshouse test on Setaria faberi; conditions: post-emergence; 1000 g/h; evaluated after 13 days
How it was run: as §1

[9] = test system: Echinochloa crus-galli (ECHCG); experiment: Post-emergence herbicidal glasshouse test on Echinochloa crus-galli; conditions: post-emergence; 1000 g/h; evaluated after 13 days
How it was run: as §1

Solanum nigrum (SOLNI) [10] = experiment: Post-emergence herbicidal glasshouse test on Solanum nigrum; conditions: post-emergence; 1000 g/h; evaluated after 13 days
How it was run: as §1

[11] = test system: Amaranthus retoflexus (AMARE); experiment: Post-emergence herbicidal glasshouse test on Amaranthus retoflexus; conditions: post-emergence; 1000 g/h; evaluated after 13 days
How it was run: as §1

[12] = test system: Ipomoea hederacea (IPOHE); experiment: Post-emergence herbicidal glasshouse test on Ipomoea hederacea; conditions: post-emergence; 1000 g/h; evaluated after 13 days
How it was run: as §1

| Structure (SMILES) | PRE Application ALOMY herbicidal damage (five point scale) [1] | PRE Application SETFA herbicidal damage (five point scale) (Setaria faberi (SETFA) [2]) | PRE Application ECHCG herbicidal damage (five point scale) [3] | PRE Application SOLNI herbicidal damage (five point scale) (Solanum nigrum (SOLNI) [4]) | PRE Application AMARE herbicidal damage (five point scale) [5] | PRE Application IPOHE herbicidal damage (five point scale) [6] | POST Application ALOMY herbicidal damage (five point scale) [7] | POST Application SETFA herbicidal damage (five point scale) (Setaria faberi (SETFA) [8]) | POST Application ECHCG herbicidal damage (five point scale) [9] | POST Application SOLNI herbicidal damage (five point scale) (Solanum nigrum (SOLNI) [10]) | POST Application AMARE herbicidal damage (five point scale) [11] | POST Application IPOHE herbicidal damage (five point scale) [12] |
| --- | --- | --- | --- | --- | --- | --- | --- | --- | --- | --- | --- | --- |
| Cn1ncc(-n2ccc(C(F)(F)F)c(-c3cccc(C#N)c3)c2=O)c(O)c1=O [Compound 7.019] | 5 (5=80-100% damage) | 5 (5=80-100% damage) | 5 (5=80-100% damage) | 5 (5=80-100% damage) | 5 (5=80-100% damage) | 2 (2=20-39% damage) | 5 (5=80-100% damage) | 5 (5=80-100% damage) | 5 (5=80-100% damage) | 5 (5=80-100% damage) | 5 (5=80-100% damage) | 2 (2=20-39% damage) |
| COc1ccc(Cn2cccc(-c3cnn(C)c(=O)c3O)c2=O)cc1 [Compound 9.004] | 1 (1=0-19% damage) | 1 (1=0-19% damage) | 1 (1=0-19% damage) | 1 (1=0-19% damage) | 1 (1=0-19% damage) | 1 (1=0-19% damage) | 1 (1=0-19% damage) | 1 (1=0-19% damage) | 1 (1=0-19% damage) | 4 (4=60-79% damage) | 4 (4=60-79% damage) | 3 (3=40-59% damage) |
| CCOc1nn(C)c(=O)c(O)c1-c1ccc(C(F)(F)F)cc1S(C)(=O)=O [Compound 2.050] | 5 (5=80-100% damage) | 5 (5=80-100% damage) | 5 (5=80-100% damage) | 5 (5=80-100% damage) | 5 (5=80-100% damage) | 5 (5=80-100% damage) | 5 (5=80-100% damage) | 5 (5=80-100% damage) | 5 (5=80-100% damage) | 5 (5=80-100% damage) | 5 (5=80-100% damage) | 5 (5=80-100% damage) |
| Cn1ncc(-c2cccn(-c3cccc(Cl)c3)c2=O)c(O)c1=O [Compound 1.143] | 2 (2=20-39% damage) | 1 (1=0-19% damage) | 1 (1=0-19% damage) | 1 (1=0-19% damage) | 3 (3=40-59% damage) | 1 (1=0-19% damage) | 2 (2=20-39% damage) | 1 (1=0-19% damage) | 2 (2=20-39% damage) | 4 (4=60-79% damage) | 1 (1=0-19% damage) | 1 (1=0-19% damage) |
| Cn1ncc(-c2ccc([N+](=O)[O-])cc2S(C)(=O)=O)c(O)c1=O [Compound 2.032] | 2 (2=20-39% damage) | 2 (2=20-39% damage) | 5 (5=80-100% damage) | 5 (5=80-100% damage) | 5 (5=80-100% damage) | 3 (3=40-59% damage) | 3 (3=40-59% damage) | 4 (4=60-79% damage) | 5 (5=80-100% damage) | 5 (5=80-100% damage) | 5 (5=80-100% damage) | 5 (5=80-100% damage) |
| Cc1ccc(Cl)c(-c2c(C(F)(F)F)ccn(-c3cnn(C)c(=O)c3O)c2=O)c1 [Compound 7.032] | 4 (4=60-79% damage) | 5 (5=80-100% damage) | 5 (5=80-100% damage) | 5 (5=80-100% damage) | 5 (5=80-100% damage) | 5 (5=80-100% damage) | 3 (3=40-59% damage) | 5 (5=80-100% damage) | 5 (5=80-100% damage) | 5 (5=80-100% damage) | 5 (5=80-100% damage) | 5 (5=80-100% damage) |
| C=C(C)Cn1cccc(-c2cnn(C)c(=O)c2O)c1=O [Compound 9.007] | 1 (1=0-19% damage) | 1 (1=0-19% damage) | 1 (1=0-19% damage) | 1 (1=0-19% damage) | 1 (1=0-19% damage) | 1 (1=0-19% damage) | 1 (1=0-19% damage) | 2 (2=20-39% damage) | 1 (1=0-19% damage) | 4 (4=60-79% damage) | 3 (3=40-59% damage) | 2 (2=20-39% damage) |
| COc1cccn(-c2cnn(C)c(=O)c2O)c1=O [Compound 1.070] | 1 (1=0-19% damage) | 1 (1=0-19% damage) | 1 (1=0-19% damage) | 1 (1=0-19% damage) | 1 (1=0-19% damage) | 1 (1=0-19% damage) | 1 (1=0-19% damage) | 4 (4=60-79% damage) | 4 (4=60-79% damage) | 4 (4=60-79% damage) | 3 (3=40-59% damage) | 1 (1=0-19% damage) |
